Legend:
Test in all cases: KINOMEscan
Format in all cases: binding
Conditions in all cases: read-out: % control activity remaining
KIT(A829P) = target: T1, KIT(A829P) (Homo sapiens, UniProt P10721, A829P)
T1 construct: purchased Eurofins DiscoverX KINOMEscan

PRKCH = target: T2, PRKCH (Homo sapiens, UniProt P24723)
T2 construct: purchased Eurofins DiscoverX KINOMEscan

[1] = target: T3, RSK3(Kin.Dom.2-C-terminal) (Homo sapiens, UniProt Q15349)
T3 construct: RSK3(Kin.Dom.2-C-terminal); purchased Eurofins DiscoverX KINOMEscan

IRAK4 = target: T4, IRAK4 (Homo sapiens, UniProt Q9NWZ3)
T4 construct: purchased Eurofins DiscoverX KINOMEscan
T4 sequence (Q9NWZ3 1-460): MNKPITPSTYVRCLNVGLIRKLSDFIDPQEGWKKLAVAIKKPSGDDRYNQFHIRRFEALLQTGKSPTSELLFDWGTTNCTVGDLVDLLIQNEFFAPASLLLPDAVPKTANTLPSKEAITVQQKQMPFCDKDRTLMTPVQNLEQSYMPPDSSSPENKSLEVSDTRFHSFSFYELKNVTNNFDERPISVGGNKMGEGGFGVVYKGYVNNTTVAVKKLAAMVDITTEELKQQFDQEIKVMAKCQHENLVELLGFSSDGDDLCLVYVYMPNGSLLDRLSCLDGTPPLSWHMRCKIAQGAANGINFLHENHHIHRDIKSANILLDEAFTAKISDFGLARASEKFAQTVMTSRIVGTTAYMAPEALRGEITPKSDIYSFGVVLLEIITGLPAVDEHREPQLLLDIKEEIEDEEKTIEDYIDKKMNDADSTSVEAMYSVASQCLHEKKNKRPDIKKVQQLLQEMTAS

GAK = target: T5, GAK (Homo sapiens, UniProt O14976)
T5 construct: purchased Eurofins DiscoverX KINOMEscan
T5 sequence (O14976 1-1311): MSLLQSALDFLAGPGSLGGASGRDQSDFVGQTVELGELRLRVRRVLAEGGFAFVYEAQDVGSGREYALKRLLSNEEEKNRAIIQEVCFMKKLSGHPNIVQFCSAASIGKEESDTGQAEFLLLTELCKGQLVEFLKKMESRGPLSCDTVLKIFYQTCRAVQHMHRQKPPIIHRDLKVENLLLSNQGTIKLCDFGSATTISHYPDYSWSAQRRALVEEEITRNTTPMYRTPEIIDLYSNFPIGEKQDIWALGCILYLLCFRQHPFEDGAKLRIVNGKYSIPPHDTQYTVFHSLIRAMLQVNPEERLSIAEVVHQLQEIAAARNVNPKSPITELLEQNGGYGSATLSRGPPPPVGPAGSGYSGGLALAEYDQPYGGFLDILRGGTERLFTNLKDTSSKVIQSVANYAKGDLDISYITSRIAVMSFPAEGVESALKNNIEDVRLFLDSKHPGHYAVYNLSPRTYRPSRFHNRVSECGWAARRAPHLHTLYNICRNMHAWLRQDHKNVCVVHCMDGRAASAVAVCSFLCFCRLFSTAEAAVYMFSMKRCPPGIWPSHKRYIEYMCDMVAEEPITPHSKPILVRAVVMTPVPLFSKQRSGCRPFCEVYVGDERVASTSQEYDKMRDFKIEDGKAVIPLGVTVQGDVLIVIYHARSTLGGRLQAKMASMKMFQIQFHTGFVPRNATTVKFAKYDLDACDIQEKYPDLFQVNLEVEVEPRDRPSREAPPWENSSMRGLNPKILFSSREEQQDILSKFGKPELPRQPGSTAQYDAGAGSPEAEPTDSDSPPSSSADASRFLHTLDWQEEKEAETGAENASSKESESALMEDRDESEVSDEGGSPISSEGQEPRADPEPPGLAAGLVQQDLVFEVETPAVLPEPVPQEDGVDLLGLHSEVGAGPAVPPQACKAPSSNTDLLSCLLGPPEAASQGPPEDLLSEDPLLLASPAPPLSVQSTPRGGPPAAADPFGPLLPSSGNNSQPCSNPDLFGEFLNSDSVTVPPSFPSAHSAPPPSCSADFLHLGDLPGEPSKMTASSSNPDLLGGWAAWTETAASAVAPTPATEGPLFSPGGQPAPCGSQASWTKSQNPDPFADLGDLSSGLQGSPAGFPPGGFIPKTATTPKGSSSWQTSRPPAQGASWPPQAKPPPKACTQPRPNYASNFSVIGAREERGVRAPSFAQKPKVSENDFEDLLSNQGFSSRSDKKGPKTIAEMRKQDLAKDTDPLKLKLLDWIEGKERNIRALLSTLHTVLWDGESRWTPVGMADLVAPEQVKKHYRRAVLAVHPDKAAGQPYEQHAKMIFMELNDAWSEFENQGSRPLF

MYLK = target: T6, MYLK (Homo sapiens, UniProt Q15746)
T6 construct: purchased Eurofins DiscoverX KINOMEscan

ZAK = target: T7, ZAK (Homo sapiens, UniProt Q9NYL2)
T7 construct: purchased Eurofins DiscoverX KINOMEscan
T7 sequence (Q9NYL2 whole entry): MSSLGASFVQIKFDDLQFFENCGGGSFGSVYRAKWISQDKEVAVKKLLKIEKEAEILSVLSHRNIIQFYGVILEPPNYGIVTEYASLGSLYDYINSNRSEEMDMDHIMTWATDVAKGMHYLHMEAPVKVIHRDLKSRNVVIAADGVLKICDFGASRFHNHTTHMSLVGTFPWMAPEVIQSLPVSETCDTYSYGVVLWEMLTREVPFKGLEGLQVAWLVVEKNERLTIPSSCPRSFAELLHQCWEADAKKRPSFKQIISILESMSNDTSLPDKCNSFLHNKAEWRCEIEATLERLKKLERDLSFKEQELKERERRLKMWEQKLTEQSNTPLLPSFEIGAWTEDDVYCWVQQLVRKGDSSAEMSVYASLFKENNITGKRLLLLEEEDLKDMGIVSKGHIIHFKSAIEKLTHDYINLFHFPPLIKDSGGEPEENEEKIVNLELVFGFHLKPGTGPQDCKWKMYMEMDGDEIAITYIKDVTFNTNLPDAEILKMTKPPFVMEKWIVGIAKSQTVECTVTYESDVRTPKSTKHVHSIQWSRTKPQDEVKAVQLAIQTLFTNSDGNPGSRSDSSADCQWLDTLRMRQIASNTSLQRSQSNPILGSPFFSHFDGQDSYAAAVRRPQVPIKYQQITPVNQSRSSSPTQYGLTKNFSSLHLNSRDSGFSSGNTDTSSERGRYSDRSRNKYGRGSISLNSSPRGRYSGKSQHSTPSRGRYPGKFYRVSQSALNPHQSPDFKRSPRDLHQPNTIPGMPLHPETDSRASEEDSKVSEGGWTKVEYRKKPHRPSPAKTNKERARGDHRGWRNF

T6 sequence (Q15746 whole entry): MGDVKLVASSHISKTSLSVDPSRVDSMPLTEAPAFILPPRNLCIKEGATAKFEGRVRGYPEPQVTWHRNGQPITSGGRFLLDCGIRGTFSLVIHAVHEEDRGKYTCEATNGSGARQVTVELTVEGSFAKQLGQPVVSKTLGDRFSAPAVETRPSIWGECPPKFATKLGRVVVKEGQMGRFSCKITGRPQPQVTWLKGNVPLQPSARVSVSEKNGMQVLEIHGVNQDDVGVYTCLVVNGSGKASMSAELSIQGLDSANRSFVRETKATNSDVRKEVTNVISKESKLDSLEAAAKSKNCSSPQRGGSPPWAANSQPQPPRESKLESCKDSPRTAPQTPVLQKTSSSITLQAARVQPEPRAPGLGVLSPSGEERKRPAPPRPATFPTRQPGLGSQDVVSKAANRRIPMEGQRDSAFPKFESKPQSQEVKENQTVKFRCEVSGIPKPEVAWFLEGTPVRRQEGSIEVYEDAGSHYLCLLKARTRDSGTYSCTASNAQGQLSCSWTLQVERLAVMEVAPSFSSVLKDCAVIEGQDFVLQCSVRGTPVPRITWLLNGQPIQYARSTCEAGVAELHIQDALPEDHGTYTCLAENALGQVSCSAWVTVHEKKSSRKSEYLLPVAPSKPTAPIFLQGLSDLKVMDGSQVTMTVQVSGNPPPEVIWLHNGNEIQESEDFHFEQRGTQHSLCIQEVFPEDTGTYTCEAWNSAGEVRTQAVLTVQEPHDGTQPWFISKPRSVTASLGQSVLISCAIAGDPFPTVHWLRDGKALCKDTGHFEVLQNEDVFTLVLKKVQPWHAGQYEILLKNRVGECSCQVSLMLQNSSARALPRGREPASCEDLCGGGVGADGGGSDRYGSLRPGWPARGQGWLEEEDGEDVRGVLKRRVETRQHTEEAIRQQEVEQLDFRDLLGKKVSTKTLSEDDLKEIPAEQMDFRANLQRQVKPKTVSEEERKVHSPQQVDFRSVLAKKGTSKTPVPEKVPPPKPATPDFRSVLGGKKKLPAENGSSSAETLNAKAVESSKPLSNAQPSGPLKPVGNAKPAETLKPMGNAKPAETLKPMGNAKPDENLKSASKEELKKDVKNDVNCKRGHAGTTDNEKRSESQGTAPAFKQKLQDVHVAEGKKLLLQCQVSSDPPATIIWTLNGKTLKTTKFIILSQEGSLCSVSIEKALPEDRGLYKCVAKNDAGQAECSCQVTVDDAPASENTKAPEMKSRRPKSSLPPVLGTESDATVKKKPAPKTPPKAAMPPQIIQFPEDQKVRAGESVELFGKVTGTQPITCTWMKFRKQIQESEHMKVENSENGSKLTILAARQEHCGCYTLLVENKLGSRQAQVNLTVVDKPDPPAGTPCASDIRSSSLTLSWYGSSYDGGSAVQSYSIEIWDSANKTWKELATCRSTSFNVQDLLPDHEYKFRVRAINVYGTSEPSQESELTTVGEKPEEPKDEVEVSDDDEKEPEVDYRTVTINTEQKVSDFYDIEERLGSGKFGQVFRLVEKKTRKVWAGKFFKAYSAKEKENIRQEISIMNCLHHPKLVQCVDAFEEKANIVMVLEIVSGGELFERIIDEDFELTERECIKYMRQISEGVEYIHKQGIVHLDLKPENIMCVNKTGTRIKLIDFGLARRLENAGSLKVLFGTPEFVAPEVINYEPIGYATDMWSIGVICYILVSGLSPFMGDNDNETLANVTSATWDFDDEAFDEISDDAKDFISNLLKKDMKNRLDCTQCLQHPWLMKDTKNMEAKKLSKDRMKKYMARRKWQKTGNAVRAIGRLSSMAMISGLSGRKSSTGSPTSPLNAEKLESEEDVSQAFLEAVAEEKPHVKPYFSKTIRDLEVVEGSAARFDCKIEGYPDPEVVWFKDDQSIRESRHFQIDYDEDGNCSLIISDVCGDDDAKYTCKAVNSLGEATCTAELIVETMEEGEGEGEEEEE
T1 sequence (P10721 26-976 A829P): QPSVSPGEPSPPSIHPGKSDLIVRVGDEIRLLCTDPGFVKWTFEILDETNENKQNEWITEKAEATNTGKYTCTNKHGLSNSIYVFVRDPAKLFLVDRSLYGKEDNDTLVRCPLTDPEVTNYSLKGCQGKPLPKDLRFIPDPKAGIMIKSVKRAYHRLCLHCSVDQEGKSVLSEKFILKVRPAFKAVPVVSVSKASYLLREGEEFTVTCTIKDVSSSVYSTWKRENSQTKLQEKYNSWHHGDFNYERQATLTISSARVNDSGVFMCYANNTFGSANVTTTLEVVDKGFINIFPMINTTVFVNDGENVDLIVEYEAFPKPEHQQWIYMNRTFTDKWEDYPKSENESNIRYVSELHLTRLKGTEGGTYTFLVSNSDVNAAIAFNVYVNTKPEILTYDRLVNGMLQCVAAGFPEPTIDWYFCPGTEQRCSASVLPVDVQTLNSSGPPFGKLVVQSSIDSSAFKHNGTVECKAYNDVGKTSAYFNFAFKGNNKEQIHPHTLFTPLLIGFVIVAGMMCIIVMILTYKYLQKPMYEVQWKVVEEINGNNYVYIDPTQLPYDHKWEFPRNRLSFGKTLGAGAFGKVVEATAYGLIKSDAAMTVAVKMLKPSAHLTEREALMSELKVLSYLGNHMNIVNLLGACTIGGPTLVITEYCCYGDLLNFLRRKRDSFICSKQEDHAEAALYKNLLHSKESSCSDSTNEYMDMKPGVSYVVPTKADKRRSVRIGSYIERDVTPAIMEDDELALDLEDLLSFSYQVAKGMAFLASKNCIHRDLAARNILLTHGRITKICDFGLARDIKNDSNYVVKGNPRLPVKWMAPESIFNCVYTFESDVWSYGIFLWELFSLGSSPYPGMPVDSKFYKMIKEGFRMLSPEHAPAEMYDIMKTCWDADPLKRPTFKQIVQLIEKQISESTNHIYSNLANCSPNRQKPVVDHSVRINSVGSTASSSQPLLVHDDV
T3 sequence (Q15349 415-672 limits assumed): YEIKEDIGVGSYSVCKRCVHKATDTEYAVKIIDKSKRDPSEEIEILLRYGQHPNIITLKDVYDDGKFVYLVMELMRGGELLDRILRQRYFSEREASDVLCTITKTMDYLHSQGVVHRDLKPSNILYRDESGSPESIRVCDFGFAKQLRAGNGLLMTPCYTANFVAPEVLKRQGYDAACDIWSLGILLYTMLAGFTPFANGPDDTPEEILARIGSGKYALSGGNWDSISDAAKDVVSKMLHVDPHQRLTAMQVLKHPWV
T2 sequence (P24723 whole entry): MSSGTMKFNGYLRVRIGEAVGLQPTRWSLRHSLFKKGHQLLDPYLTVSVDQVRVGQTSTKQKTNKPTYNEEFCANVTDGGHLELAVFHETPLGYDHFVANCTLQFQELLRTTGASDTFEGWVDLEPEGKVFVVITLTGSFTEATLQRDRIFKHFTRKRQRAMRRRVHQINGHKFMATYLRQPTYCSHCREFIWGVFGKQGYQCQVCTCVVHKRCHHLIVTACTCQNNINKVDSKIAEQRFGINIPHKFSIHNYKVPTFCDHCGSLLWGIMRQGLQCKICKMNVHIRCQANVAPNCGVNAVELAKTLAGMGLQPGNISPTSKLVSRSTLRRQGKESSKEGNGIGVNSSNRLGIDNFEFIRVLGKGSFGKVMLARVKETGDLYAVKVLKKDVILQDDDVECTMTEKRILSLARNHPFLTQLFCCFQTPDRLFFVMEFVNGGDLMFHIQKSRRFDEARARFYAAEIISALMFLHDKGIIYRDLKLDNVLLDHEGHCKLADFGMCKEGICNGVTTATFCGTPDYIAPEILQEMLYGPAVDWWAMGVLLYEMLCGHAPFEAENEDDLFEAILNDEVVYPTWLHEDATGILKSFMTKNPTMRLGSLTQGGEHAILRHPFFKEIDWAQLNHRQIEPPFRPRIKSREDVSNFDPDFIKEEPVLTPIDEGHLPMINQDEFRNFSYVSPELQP

## Clc1cc(NCC2CC2)c2ncc(-c3ccc4[nH]ncc4c3)n2n1 [compound 2, 6-Chloro-N-(cyclopropylmethyl)-3-(1H-indazol-5-yl)imidazo[1,2-b]pyridazin-8-amine]
KIT(A829P)
  remaining binding at 1 µM: 75%
PRKCH
  remaining binding at 1 µM: 96%
[1]
  remaining binding at 1 µM: 100%
IRAK4
  remaining binding at 1 µM: 92%
GAK
  remaining binding at 1 µM: 8.8%
MYLK
  remaining binding at 1 µM: 79%
ZAK
  remaining binding at 1 µM: 86%

## O=C(CN1CCOCC1)N[C@H]1CC[C@H](Nc2cc(Cl)nn3c(-c4ccc5[nH]ncc5c4)cnc23)CC1 [compound 26]
KIT(A829P)
  remaining binding at 1 µM: 45%
PRKCH
  remaining binding at 1 µM: 100%
[1]
  remaining binding at 1 µM: 94%
IRAK4
  remaining binding at 1 µM: 85%
GAK
  remaining binding at 1 µM: 10%
MYLK
  remaining binding at 1 µM: 42%
ZAK
  remaining binding at 1 µM: 87%

## CN1CCC(CNc2cc(Cl)nn3c(-c4cc5nc(Nc6ccccc6)[nH]c5cc4F)cnc23)CC1 [compound 31, 6-Chloro-3-(6-fluoro-2-(phenylamino)-1H-benzo[d]imidazol-5-yl)-N-((1-methylpiperidin-4-yl)methyl)imidazo[1,2-b]pyridazin-8-amine]
KIT(A829P)
  remaining binding at 1 µM: 94%
PRKCH
  remaining binding at 1 µM: 100%
[1]
  remaining binding at 1 µM: 80%
IRAK4
  remaining binding at 1 µM: 91%
GAK
  remaining binding at 1 µM: 33%
MYLK
  remaining binding at 1 µM: 81%
ZAK
  remaining binding at 1 µM: 93%

Reference: paper PMC6437697 (Journal of Medicinal Chemistry, 2019)
